Among the data in the supplement of paper PMC10307832 are relative viability values, retold here.

Holding throughout (experiment): relative viability (nuclei count vs DMSO), 5 days (fraction); higher = more cells survive
Compound in the assay “17-AAG + Bortezomib”: C=CCNC1=C2C[C@@H](C)C[C@H](OC)[C@H](O)[C@@H](C)/C=C(\C)[C@H](OC(N)=O)[C@@H](OC)/C=C\C=C(/C)C(=O)NC(=CC1=O)C2=O [17-AAG] + CC(C)C[C@H](NC(=O)[C@H](Cc1ccccc1)NC(=O)c1cnccn1)B(O)O [Bortezomib] (partner 0.002 µM)
In a few lines:
(§1)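 Lung cancer cell lines in 1536-well plates got either a single drug or a fixed anchor-drug dose together with five library-drug doses (not always all listed) in √10 steps, by pin tool, on the day after seeding. Nuclei were counted after 5 days, and relative viability is the treated-to-vehicle ratio of nuclei counts. Values are medians of duplicate plates.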

Compound in the assay “17-AAG + Pemetrexed”: C=CCNC1=C2C[C@@H](C)C[C@H](OC)[C@H](O)[C@@H](C)/C=C(\C)[C@H](OC(N)=O)[C@@H](OC)/C=C\C=C(/C)C(=O)NC(=CC1=O)C2=O [17-AAG] + Nc1nc2[nH]cc(CCc3ccc(C(=O)N[C@@H](CCC(=O)O)C(=O)O)cc3)c2c(=O)[nH]1 [Pemetrexed] (partner 0.2 µM)
In a few lines: as §1

Compound in the assay “17-AAG + Alpelisib”: C=CCNC1=C2C[C@@H](C)C[C@H](OC)[C@H](O)[C@@H](C)/C=C(\C)[C@H](OC(N)=O)[C@@H](OC)/C=C\C=C(/C)C(=O)NC(=CC1=O)C2=O [17-AAG] + Cc1nc(NC(=O)N2CCC[C@H]2C(N)=O)sc1-c1ccnc(C(C)(C)C(F)(F)F)c1 [Alpelisib] (partner 2 µM)
An outline of the steps: as §1

Compound in the assay “17-AAG + Olaparib”: C=CCNC1=C2C[C@@H](C)C[C@H](OC)[C@H](O)[C@@H](C)/C=C(\C)[C@H](OC(N)=O)[C@@H](OC)/C=C\C=C(/C)C(=O)NC(=CC1=O)C2=O [17-AAG] + O=C(c1cc(Cc2n[nH]c(=O)c3ccccc23)ccc1F)N1CCN(C(=O)C2CC2)CC1 [Olaparib] (partner 8 µM)
An outline of the steps:
as §1

For HCC-44, the relative viability with 17-AAG + Bortezomib (first compound 0.00128 µM) was 0.865; with 17-AAG + Bortezomib (first compound 0.004048 µM), 0.854; with 17-AAG + Bortezomib (first compound 0.0128 µM), 0.903; with 17-AAG + Bortezomib (first compound 0.04048 µM), 0.466; in the assay with 17-AAG + Bortezomib (first compound 0.128 µM), 0.142; with 17-AAG + Pemetrexed (first compound 0.00128 µM), 0.639. The relative viability in the assay with 17-AAG + Pemetrexed (first compound 0.004048 µM) was found to be 0.619; in the assay with 17-AAG + Pemetrexed (first compound 0.0128 µM) it was 0.649; with 17-AAG + Pemetrexed (first compound 0.04048 µM) it was 0.694; with 17-AAG + Pemetrexed (first compound 0.128 µM) it was 0.352; in the assay with 17-AAG + Alpelisib (first compound 0.00128 µM), 0.792; with 17-AAG + Alpelisib (first compound 0.004048 µM), 0.742. For the same cell line, the relative viability with 17-AAG + Alpelisib (first compound 0.0128 µM) came to 0.656; in the assay with 17-AAG + Alpelisib (first compound 0.04048 µM), 0.449; with 17-AAG + Alpelisib (first compound 0.128 µM), 0.138; with 17-AAG + Olaparib (first compound 0.00128 µM) it was 0.976; with 17-AAG + Olaparib (first compound 0.004048 µM), 0.989; with 17-AAG + Olaparib (first compound 0.0128 µM), 1. Also, the relative viability with 17-AAG + Olaparib (first compound 0.04048 µM) came to 0.997; with 17-AAG + Olaparib (first compound 0.128 µM), 0.492.
HCC-78: the relative viability in the assay with 17-AAG + Bortezomib (first compound 0.00128 µM) was 0.538; with 17-AAG + Bortezomib (first compound 0.004048 µM) it was 0.482; in the assay with 17-AAG + Bortezomib (first compound 0.0128 µM) it was 0.539; in the assay with 17-AAG + Bortezomib (first compound 0.04048 µM), 0.368; in the assay with 17-AAG + Bortezomib (first compound 0.128 µM), 0.6; with 17-AAG + Pemetrexed (first compound 0.00128 µM), 0.902. For the same cell line, the relative viability was found to be 0.926 with 17-AAG + Pemetrexed (first compound 0.004048 µM); 0.919 in the assay with 17-AAG + Pemetrexed (first compound 0.0128 µM); 0.879 with 17-AAG + Pemetrexed (first compound 0.04048 µM); 0.836 in the assay with 17-AAG + Pemetrexed (first compound 0.128 µM); 0.418 with 17-AAG + Alpelisib (first compound 0.00128 µM); 0.446 with 17-AAG + Alpelisib (first compound 0.0128 µM). Besides, the relative viability with 17-AAG + Alpelisib (first compound 0.04048 µM) worked out at 0.326; with 17-AAG + Alpelisib (first compound 0.128 µM), 0.294; in the assay with 17-AAG + Olaparib (first compound 0.00128 µM), 0.806; in the assay with 17-AAG + Olaparib (first compound 0.004048 µM), 0.832; with 17-AAG + Olaparib (first compound 0.0128 µM), 1.07; with 17-AAG + Olaparib (first compound 0.04048 µM), 0.681. In addition, the relative viability with 17-AAG + Olaparib (first compound 0.128 µM) is 0.308.
In the case of HCC-366, the relative viability was found to be 0.949 with 17-AAG + Bortezomib (first compound 0.00128 µM); 0.785 in the assay with 17-AAG + Bortezomib (first compound 0.004048 µM); 0.0604 with 17-AAG + Bortezomib (first compound 0.0128 µM); 0.0267 with 17-AAG + Bortezomib (first compound 0.04048 µM); 0.0245 with 17-AAG + Bortezomib (first compound 0.128 µM); 0.207 with 17-AAG + Pemetrexed (first compound 0.00128 µM). For the same cell line, the relative viability with 17-AAG + Pemetrexed (first compound 0.004048 µM) came out at 0.311; with 17-AAG + Pemetrexed (first compound 0.0128 µM), 0.127; with 17-AAG + Pemetrexed (first compound 0.04048 µM), 0.0359; with 17-AAG + Pemetrexed (first compound 0.128 µM), 0.0398; with 17-AAG + Alpelisib (first compound 0.00128 µM), 0.565; with 17-AAG + Alpelisib (first compound 0.004048 µM) it was 0.333. The relative viability was 0.0236 with 17-AAG + Alpelisib (first compound 0.0128 µM); 0.0226 with 17-AAG + Alpelisib (first compound 0.04048 µM); 0.0154 with 17-AAG + Alpelisib (first compound 0.128 µM); 0.414 with 17-AAG + Olaparib (first compound 0.00128 µM); 0.357 with 17-AAG + Olaparib (first compound 0.004048 µM); 0.0266 in the assay with 17-AAG + Olaparib (first compound 0.0128 µM). The figures for the relative viability with 17-AAG + Olaparib (first compound 0.04048 µM) and in the assay with 17-AAG + Olaparib (first compound 0.128 µM) were 0.0306 and 0.0265, respectively.
As for IA-LM, the relative viability in the assay with 17-AAG + Bortezomib (first compound 0.00128 µM) came to 0.886; with 17-AAG + Bortezomib (first compound 0.004048 µM), 0.604; with 17-AAG + Bortezomib (first compound 0.0128 µM) it was 0.766; with 17-AAG + Bortezomib (first compound 0.04048 µM) it was 0.326; in the assay with 17-AAG + Bortezomib (first compound 0.128 µM), 0.0846; in the assay with 17-AAG + Alpelisib (first compound 0.00128 µM), 0.719. Besides, the relative viability with 17-AAG + Alpelisib (first compound 0.004048 µM) worked out at 0.813; in the assay with 17-AAG + Alpelisib (first compound 0.0128 µM), 0.657; with 17-AAG + Alpelisib (first compound 0.04048 µM) it was 0.303; with 17-AAG + Alpelisib (first compound 0.128 µM), 0.105; in the assay with 17-AAG + Olaparib (first compound 0.00128 µM) it was 0.89; in the assay with 17-AAG + Olaparib (first compound 0.004048 µM) it was 0.919. The results for the relative viability with 17-AAG + Olaparib (first compound 0.0128 µM), with 17-AAG + Olaparib (first compound 0.04048 µM) and in the assay with 17-AAG + Olaparib (first compound 0.128 µM) were 0.68, 0.179 and 0.0981, respectively.
LK-2: the relative viability with 17-AAG + Pemetrexed (first compound 0.00128 µM) turned out to be 0.266; with 17-AAG + Pemetrexed (first compound 0.004048 µM), 0.292; in the assay with 17-AAG + Pemetrexed (first compound 0.0128 µM), 0.211; with 17-AAG + Pemetrexed (first compound 0.04048 µM), 0.101; with 17-AAG + Pemetrexed (first compound 0.128 µM) it was 0.0875; with 17-AAG + Alpelisib (first compound 0.00128 µM) it was 1.13. Further, the relative viability was determined as 0.998 in the assay with 17-AAG + Alpelisib (first compound 0.004048 µM); 1.28 in the assay with 17-AAG + Alpelisib (first compound 0.0128 µM); 0.217 with 17-AAG + Alpelisib (first compound 0.04048 µM); 0.233 in the assay with 17-AAG + Alpelisib (first compound 0.128 µM); 0.831 in the assay with 17-AAG + Olaparib (first compound 0.00128 µM); 0.765 with 17-AAG + Olaparib (first compound 0.004048 µM). Besides, the relative viability is 0.266 with 17-AAG + Olaparib (first compound 0.0128 µM), 0.149 in the assay with 17-AAG + Olaparib (first compound 0.04048 µM) and 0.123 in the assay with 17-AAG + Olaparib (first compound 0.128 µM).
Take NCI-H358: the relative viability in the assay with 17-AAG + Pemetrexed (first compound 0.00128 µM) worked out at 0.156; in the assay with 17-AAG + Pemetrexed (first compound 0.004048 µM) it was 0.19; with 17-AAG + Pemetrexed (first compound 0.0128 µM), 0.126; with 17-AAG + Pemetrexed (first compound 0.04048 µM) it was 0.0833; in the assay with 17-AAG + Pemetrexed (first compound 0.128 µM), 0.0832; with 17-AAG + Alpelisib (first compound 0.00128 µM), 0.838. In addition, the relative viability with 17-AAG + Alpelisib (first compound 0.004048 µM) turned out to be 0.556; in the assay with 17-AAG + Alpelisib (first compound 0.0128 µM) it was 0.126; with 17-AAG + Alpelisib (first compound 0.04048 µM), 0.134; with 17-AAG + Alpelisib (first compound 0.128 µM) it was 0.126; in the assay with 17-AAG + Olaparib (first compound 0.00128 µM), 0.606; with 17-AAG + Olaparib (first compound 0.004048 µM) it was 0.522. Also, the results for the relative viability with 17-AAG + Olaparib (first compound 0.0128 µM), with 17-AAG + Olaparib (first compound 0.04048 µM) and with 17-AAG + Olaparib (first compound 0.128 µM) were 0.0873, 0.0667 and 0.0637, respectively.
As to NCI-H522, the relative viability with 17-AAG + Pemetrexed (first compound 0.00128 µM) stood at 0.974; with 17-AAG + Pemetrexed (first compound 0.004048 µM), 1.01; with 17-AAG + Pemetrexed (first compound 0.0128 µM) it was 0.673; with 17-AAG + Pemetrexed (first compound 0.04048 µM), 0.764; with 17-AAG + Pemetrexed (first compound 0.128 µM) it was 0.372; with 17-AAG + Olaparib (first compound 0.00128 µM), 0.517. The relative viability with 17-AAG + Olaparib (first compound 0.004048 µM) was found to be 0.878; with 17-AAG + Olaparib (first compound 0.0128 µM) it was 0.505; with 17-AAG + Olaparib (first compound 0.04048 µM), 0.485; in the assay with 17-AAG + Olaparib (first compound 0.128 µM), 0.399.
For NCI-H727, the relative viability was determined as 0.795 with 17-AAG + Bortezomib (first compound 0.00128 µM); 0.766 in the assay with 17-AAG + Bortezomib (first compound 0.004048 µM); 0.784 with 17-AAG + Bortezomib (first compound 0.0128 µM); 0.322 with 17-AAG + Bortezomib (first compound 0.04048 µM); 0.229 with 17-AAG + Bortezomib (first compound 0.128 µM); 0.519 with 17-AAG + Alpelisib (first compound 0.00128 µM). Moreover, the relative viability with 17-AAG + Alpelisib (first compound 0.004048 µM) amounted to 0.63; in the assay with 17-AAG + Alpelisib (first compound 0.0128 µM), 0.358; with 17-AAG + Alpelisib (first compound 0.04048 µM), 0.182; in the assay with 17-AAG + Alpelisib (first compound 0.128 µM) it was 0.192; with 17-AAG + Olaparib (first compound 0.00128 µM) it was 0.619; in the assay with 17-AAG + Olaparib (first compound 0.004048 µM), 0.737. The relative viability with 17-AAG + Olaparib (first compound 0.0128 µM) was 0.696; in the assay with 17-AAG + Olaparib (first compound 0.04048 µM), 0.707; with 17-AAG + Olaparib (first compound 0.128 µM), 0.386.
Take NCI-H1299: the relative viability amounted to 1.06 in the assay with 17-AAG + Bortezomib (first compound 0.00128 µM); 0.977 with 17-AAG + Bortezomib (first compound 0.004048 µM); 1.01 in the assay with 17-AAG + Bortezomib (first compound 0.0128 µM); 0.948 with 17-AAG + Bortezomib (first compound 0.04048 µM); 0.665 with 17-AAG + Bortezomib (first compound 0.128 µM); 1.04 in the assay with 17-AAG + Alpelisib (first compound 0.00128 µM). For the same cell line, the relative viability with 17-AAG + Alpelisib (first compound 0.004048 µM) worked out at 1.05; with 17-AAG + Alpelisib (first compound 0.0128 µM) it was 1; with 17-AAG + Alpelisib (first compound 0.04048 µM), 0.94; with 17-AAG + Alpelisib (first compound 0.128 µM) it was 0.729; in the assay with 17-AAG + Olaparib (first compound 0.00128 µM), 1.01; in the assay with 17-AAG + Olaparib (first compound 0.004048 µM), 0.922. For the same cell line, the relative viability with 17-AAG + Olaparib (first compound 0.0128 µM) was 0.965; in the assay with 17-AAG + Olaparib (first compound 0.04048 µM) it was 0.605; with 17-AAG + Olaparib (first compound 0.128 µM) it was 0.282.
